Test results as given in patent US20060009431A1, “Nitrosated and nitrosylated compounds, compositions and methods use” (NitroMed, Inc., priority 2003, published 2006).
Read-outs that look alike come from different tables or passages of the source.

What was measured:
[1] = tested on: human coronary artery smooth muscle cells (CASMC); test: Vascular smooth muscle cell (SMC) antiproliferation assay; type: cell-based; conditions: viable cell count (Trypan Blue exclusion) ~68 hours after compound addition
Protocol: Suppression of Proliferation of Human Coronary Artery Smooth Muscle Cells (CASMC)
Vascular Smooth Muscle Cell (SMC) Antiproliferation Assay
The cells used in this assay were human coronary artery smooth muscle cells (CASMC) supplied by Clonetics Corp. (San Diego, Calif.). They were maintained in SmGM-2 growth medium (Clonetics Corp.), which consisted of modified MCDB 131 medium supplemented with 5% (v/v) fetal bovine serum (FBS), 0.5 ng/mL human recombinant epidermal growth factor (EGF), 2 ng/mL human recombinant fibroblast growth factor (FGF), 5 μg/mL bovine insulin, 50 μg/mL gentamicin sulfate, and 50 ng/mL amphotericin B under humidified 95% air-5% CO2 at 37° C. Cells were used for experiments up to about 17 cumulative population doublings (i.e., passage 9); at this age they still stained positive for smooth muscle actin, a protein marker for smooth muscle cells.
For the SMC antiproliferation assay, the cells were seeded at 3×10^4 viable cells in 2 mL of SmGM-2 medium per well of a Corning 24 tissue culture well plate (Corning, N.Y.). Stock solutions of the test compounds were prepared just prior to addition to the cells by dissolving in DMSO at a concentration of 1000 times the highest concentration to be assayed. This stock solution was diluted, as required, with DMSO to lower concentrations. On the same day the cells were seeded, but after they had attached and spread out (about 3 hours), each test compound in varying concentrations (2 μL of the diluted stock solutions) was added to four replicate wells (n=4) for each concentration. Control cultures received 2 μL of DMSO per well (n=4). On the following morning, the cultures were examined microscopically and their condition recorded. On the third day after test compound addition (˜68 hours), the cultures were examined microscopically again and the viable cells counted with an hemacytometer following trypsinization with 0.25% trypsin-1 mM EDTA. Trypan Blue dye exclusion was used to discriminate between viable and dead cells. The results were usually presented as % of the control viable cell count (mean±SEM) and were used to determine the IC50 for the inhibition of proliferation of vascular smooth muscle cells.

[2] = Homo sapiens, n=4, read-out: IC 50 for the inhibition of proliferation of vascular smooth muscle cells, Nitrosated and/or Nitrosylated Compound
[3] = n=4, read-out: IC 50 for the inhibition of proliferation of vascular smooth muscle cells, Non-nitrosated and/or Non-nitrosylated Compound

SMILES | IC50 [1, 2] [µM] | melting point [°C] | IC50 [1, 3] [µM]
CC(C)(CNC(=O)CO/N=C1\C[C@@H]2[C@H](CC[C@]3(C)[C@@H](O)CC[C@@H]23)c2ccc(O)cc21)SN=O [Example 41, 2-(((1S,11S,14S,15S,10R)-5,14-dihydroxy-15-methyltetracyclo(8.7.0.0<2,7>0.0<11,15>)heptadeca-2,4,6-trien-8-ylidene)azamethoxy)-N-(2-methyl-2-(nitrosothio)propyl)acetamide] | 10 | 145 to 150 | 
CC(C)(CNC(=O)COc1ccc2c(c1)CC[C@@H]1[C@@H]2CC[C@]2(C)[C@@H](O)CC[C@@H]12)SN=O [Example 42, 2-((1S,11S,14S,15S,10R)-14-Hydroxy-15-methyltetracyclo(8.7.0.0<2,7>0.0<11,15>)heptadeca-2,4,6-trien-5-yloxy)-N-(2-methyl-2-(nitrosothio)propyl)acetamide] | 9 | 40 | 
C[C@]12CC[C@@H]3c4ccc(OCC(=O)OCCC5(S)C6CC7CC(C6)CC5C7)cc4CC[C@H]3[C@@H]1CC[C@@H]2O (stereo partly drawn) [Example 45, 2-(2-Sulfanyladamantan-2-yl)ethyl 2-((1S,11S,14S,15S,10R)-14-hydroxy-15-methyltetracyclo(8.7.0.0<2,7>0.0<11,15>)heptadeca-2,4,6-trien-5-yloxy)acetate] |  | 78 to 80 | 8
C[C@]12CC[C@@H]3c4ccc(O)cc4/C(=N/OCC(=O)OCCC4(S)C5CC6CC(C5)CC4C6)C[C@H]3[C@@H]1CC[C@@H]2O (stereo partly drawn) [Example 46, 2-(2-sulfanyladamantan-2-yl)ethyl 2-(((1S,11S,14S,15S,10R)-5,14-dihydroxy-15-methyltetracyclo(8.7.0.0<2,7>0.0<11,15>)heptadeca-2,4,6-trien-8-ylidene)azamethoxy)acetate] |  | 85 to 90 | 5 to 12
CC(C)(S)CNC(=O)CO/N=C1\C[C@@H]2[C@H](CC[C@]3(C)[C@@H](O)CC[C@@H]23)c2ccc(O)cc21 [Example 47, 2-(((1S,11S,14S,15S,10R)-5,14-dihydroxy-15-methyltetracyclo(8.7.0.0<2,7>0.0<11,15>)heptadeca-2,4,6-trien-8-ylidene)azamethoxy)-N-(2-methyl-2-sulfanylpropyl)acetamide] |  | 87 to 90 | > 80
CC(C)(S)CNC(=O)COc1ccc2c(c1)CC[C@@H]1[C@@H]2CC[C@]2(C)[C@@H](O)CC[C@@H]12 [Example 48, 2-((1S,11S,14S,15S,10R)-14-hydroxy-15-methyltetracyclo(8.7.0.0<2,7>0.0<11,15>)heptadeca-2,4,6-trien-5-yloxy)-N-(2-methyl-2-sulfanylpropyl)acetamide] |  | 50 to 52 | 11
COc1ccc(C=C2c3ccccc3C(=NOCC(=O)NCC(C)(C)SN=O)c3ccccc32)cc1O [Example 51, 2-((10-((3-Hydroxy-4-methoxyphenyl)methylene)(9-anthrylidene))-azamethoxy)-N-(2-methyl-2-(nitrosothio)propyl)acetamide] | 10 | 143 to 145 | 
COc1ccc(C=C2c3ccccc3C(=NO)c3ccccc32)cc1O [Example 52, 5-((10-(Hydroxyimino)(9-anthrylidene))methyl)-2-methoxyphenol] |  | 140 | 0.6
C[C@]12CC[C@@H]3c4ccc(OC(=O)c5ccccc5)cc4CC[C@H]3[C@@H]1CC[C@@H]2OC(=O)CCC(=O)O[C@H]1CO[C@H]2[C@@H]1OC[C@H]2O [Example 57, (1S,11S,14S,15S,10R)-15-Methyl-5-phenylcarbonyloxytetracyclo(8.7.0.0<2,7>0.0<11,15>)heptadeca-2,4,6-trien-14-yl(1S,2S,5R,6R)-6-hydroxy-4,8-dioxabicyclo(3.3.0)oct-2-yl butane-1,4-dioate] |  | 136 to 137 | > 80
C[C@]12CC[C@@H]3c4ccc(OC(=O)CCC(=O)O[C@H]5CO[C@H]6[C@@H]5OC[C@H]6O)cc4CC[C@H]3[C@@H]1CC[C@@H]2O [Example 58, (1S,11S,14S,15S,10R)-14-Hydroxy-15-Methyltetracyclo(8.7.0.0<2,7>0.0<11,15>)heptadeca-2,4,6-trien-5-yl(1S,2S,5R,6R)-6-hydroxy-4,8-dioxabicyclo(3.3.0)oct-2-yl butane-1,4-dioate] |  | 79 to 80 | 12
